According to patent US6933260B2, “Avermectin B1 derivatives having an aminosulfonyloxy substituent in the 4′-position” (Syngenta Crop Protection, Inc., priority 2001, dated 2005):

Columns and labels:
Assay type in all cases: in vivo
[1] = system: Spodoptera littoralis; assay: Action against Spodoptera littoralis (foliar spray on soybean plants); details: 72 h, 12.5 ppm spray, caterpillars in the first stage, 3 days, read-out: percentage reduction in population and percentage reduction in feeding damage (% activity)
Protocol: Young soybean plants are sprayed with an aqueous emulsion spray mixture comprising 12.5 ppm of test compound and, after the spray-coating has dried, the plants are populated with 10 caterpillars of Spodoptera littoralis in the first stage and then placed in a plastics container. 3 days later, the percentage reduction in population and the percentage reduction in feeding damage (% activity) are determined by comparing the number of dead caterpillars and the feeding damage on the treated plants with that on untreated plants.

[2] = system: Plutella xylostella; assay: Action against Plutella xylostella caterpillars (spray on cabbage plants); details: 72 h, 12.5 ppm spray, caterpillars in the first stage, 3 days, read-out: percentage reduction in population and percentage reduction in feeding damage (% activity)
Protocol: Young cabbage plants are sprayed with an aqueous emulsion spray mixture comprising 12.5 ppm of test compound. After the spray-coating has dried, the cabbage plants are populated with 10 caterpillars of Plutella xylostella in the first stage and placed in a plastics container. Evaluation is made 3 days later. The percentage reduction in population and the percentage reduction in feeding damage (% activity) are determined by comparing the number of dead caterpillars and the feeding damage on the treated plants with that on the untreated plants.

[3] = system: Diabrotica balteata; assay: Action against Diabrotica balteata (spray on maize seedlings); details: 144 h, 12.5 ppm spray, larvae in the second stage, 6 days, read-out: percentage reduction in population (% activity)
Protocol: Maize seedlings are sprayed with an aqueous emulsion spray mixture comprising 12.5 ppm of the test compound and, after the spray-coating has dried, the maize seedlings are populated with 10 Diabrotica balteata larvae in the second stage and then placed in a plastics container. 6 days later, the percentage reduction in population (% activity) is determined by comparing the number of dead larvae on the treated plants with that on untreated plants.

[4] = system: Tetranychus urticae; assay: Action against Tetranychus urticae (spray on bean plants); details: 144 h, 12.5 ppm spray, mixed population, 6 days at 25° C., read-out: percentage reduction in population (% activity)
Protocol: Young bean plants are populated with a mixed population of Tetranychus urticae and sprayed one day later with an aqueous emulsion spray mixture comprising 12.5 ppm of test compound. The plants are incubated for 6 days at 25° C. and subsequently evaluated. The percentage reduction in population (% activity) is determined by comparing the number of dead eggs, larvae and adults on the treated plants with that on untreated plants.

Measured: inhibition at 12.5 ppm

CCC(C)[C@H]1O[C@]2(C=C[C@@H]1C)C[C@@H]1C[C@@H](C/C=C(\C)[C@@H](O[C@H]3C[C@H](OC)[C@@H](O[C@H]4C[C@H](OC)[C@@H](OS(N)(=O)=O)[C@H](C)O4)[C@H](C)O3)[C@@H](C)/C=C/C=C3\CO[C@@H]4[C@H](O)C(C)=C[C@@H](C(=O)O1)[C@]34O)O2 (some centres unmarked) [P.1, 4″-sulfamoyloxy-avermectin B1]
> 80%: all assays above

CCC(C)[C@H]1O[C@]2(C=C[C@@H]1C)C[C@@H]1C[C@@H](C/C=C(\C)[C@@H](O[C@H]3C[C@H](OC)[C@@H](O[C@H]4C[C@H](OC)[C@@H](OS(=O)(=O)NC)[C@H](C)O4)[C@H](C)O3)[C@@H](C)/C=C/C=C3\CO[C@@H]4[C@H](O)C(C)=C[C@@H](C(=O)O1)[C@]34O)O2 (some centres unmarked) [P.2, 4″-methylaminosulfonyloxy-avermectin B1]
> 80%: all assays above

CCNS(=O)(=O)O[C@H]1[C@H](C)O[C@@H](O[C@H]2[C@H](C)O[C@@H](O[C@@H]3/C(C)=C/C[C@@H]4C[C@@H](C[C@]5(C=C[C@H](C)[C@@H](C(C)CC)O5)O4)OC(=O)[C@@H]4C=C(C)[C@@H](O)[C@H]5OC/C(=C\C=C\[C@@H]3C)[C@]54O)C[C@@H]2OC)C[C@@H]1OC (some centres unmarked) [P.3, 4″-ethylaminosulfonyloxy-avermectin B1]
> 80%: [2] | [3] | [4]

CCC(C)[C@H]1O[C@]2(C=C[C@@H]1C)C[C@@H]1C[C@@H](C/C=C(\C)[C@@H](O[C@H]3C[C@H](OC)[C@@H](O[C@H]4C[C@H](OC)[C@@H](OS(=O)(=O)N(C)C)[C@H](C)O4)[C@H](C)O3)[C@@H](C)/C=C/C=C3\CO[C@@H]4[C@H](O)C(C)=C[C@@H](C(=O)O1)[C@]34O)O2 (some centres unmarked) [P.7, 4″-dimethylaminosulfonyloxy-avermectin B1]
> 80%: [2] | [3] | [4]
